In ChEMBL document CHEMBL5291721, “A preclinical secondary pharmacology resource illuminates target-adverse drug reaction associations of marketed drugs” (Nat Commun, 2023) one finds AC50 data, which are given here for 11 compounds.

One assay addresses T1, Adenosine receptor A1 (Homo sapiens, UniProt P30542).
T1 sequence (P30542 whole entry): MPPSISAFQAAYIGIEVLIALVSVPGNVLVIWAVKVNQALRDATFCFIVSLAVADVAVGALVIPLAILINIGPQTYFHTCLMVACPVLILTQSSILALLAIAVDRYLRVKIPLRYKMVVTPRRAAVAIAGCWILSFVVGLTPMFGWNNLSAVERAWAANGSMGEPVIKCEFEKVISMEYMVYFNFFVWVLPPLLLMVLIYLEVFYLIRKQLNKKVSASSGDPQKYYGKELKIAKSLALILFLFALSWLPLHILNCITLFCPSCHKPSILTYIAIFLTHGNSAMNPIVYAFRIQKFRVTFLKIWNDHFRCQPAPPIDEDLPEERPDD

Assay [1] has as its target T2, Alpha-2A adrenergic receptor (Homo sapiens, UniProt P08913).
T2 sequence (P08913 whole entry): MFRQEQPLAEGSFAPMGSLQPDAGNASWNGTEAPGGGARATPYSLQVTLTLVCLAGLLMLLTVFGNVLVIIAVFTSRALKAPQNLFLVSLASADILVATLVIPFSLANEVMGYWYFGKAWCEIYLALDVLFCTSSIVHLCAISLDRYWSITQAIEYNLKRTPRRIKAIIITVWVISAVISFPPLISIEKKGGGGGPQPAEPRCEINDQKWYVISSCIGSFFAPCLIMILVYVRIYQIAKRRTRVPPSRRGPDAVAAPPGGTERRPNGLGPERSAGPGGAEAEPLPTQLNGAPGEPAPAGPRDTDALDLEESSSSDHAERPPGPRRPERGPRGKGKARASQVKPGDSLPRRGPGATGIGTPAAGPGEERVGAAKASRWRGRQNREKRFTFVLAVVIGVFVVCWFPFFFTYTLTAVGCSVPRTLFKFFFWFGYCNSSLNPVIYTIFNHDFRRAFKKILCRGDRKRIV
The class given is functional, cell-based.

The target in another assay is T3, B2 bradykinin receptor (Homo sapiens, UniProt P30411).
T3 sequence (P30411 whole entry): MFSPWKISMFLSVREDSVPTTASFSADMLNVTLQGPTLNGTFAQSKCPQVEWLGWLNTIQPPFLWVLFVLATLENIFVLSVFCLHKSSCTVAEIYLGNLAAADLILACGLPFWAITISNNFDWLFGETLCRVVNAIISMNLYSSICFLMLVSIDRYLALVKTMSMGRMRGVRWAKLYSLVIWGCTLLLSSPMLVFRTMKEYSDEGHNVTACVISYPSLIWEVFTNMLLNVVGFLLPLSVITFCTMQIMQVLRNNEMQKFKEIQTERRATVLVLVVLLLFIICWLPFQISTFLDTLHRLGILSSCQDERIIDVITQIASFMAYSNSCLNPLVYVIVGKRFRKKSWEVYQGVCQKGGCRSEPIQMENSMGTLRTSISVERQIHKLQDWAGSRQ

Assay [2] deals with Voltage-dependent L-type calcium channel subunit alpha-1C (Rattus norvegicus, UniProt P22002). Type of assay: functional.
Sequence of Voltage-dependent L-type calcium channel subunit alpha-1C (P22002 whole entry): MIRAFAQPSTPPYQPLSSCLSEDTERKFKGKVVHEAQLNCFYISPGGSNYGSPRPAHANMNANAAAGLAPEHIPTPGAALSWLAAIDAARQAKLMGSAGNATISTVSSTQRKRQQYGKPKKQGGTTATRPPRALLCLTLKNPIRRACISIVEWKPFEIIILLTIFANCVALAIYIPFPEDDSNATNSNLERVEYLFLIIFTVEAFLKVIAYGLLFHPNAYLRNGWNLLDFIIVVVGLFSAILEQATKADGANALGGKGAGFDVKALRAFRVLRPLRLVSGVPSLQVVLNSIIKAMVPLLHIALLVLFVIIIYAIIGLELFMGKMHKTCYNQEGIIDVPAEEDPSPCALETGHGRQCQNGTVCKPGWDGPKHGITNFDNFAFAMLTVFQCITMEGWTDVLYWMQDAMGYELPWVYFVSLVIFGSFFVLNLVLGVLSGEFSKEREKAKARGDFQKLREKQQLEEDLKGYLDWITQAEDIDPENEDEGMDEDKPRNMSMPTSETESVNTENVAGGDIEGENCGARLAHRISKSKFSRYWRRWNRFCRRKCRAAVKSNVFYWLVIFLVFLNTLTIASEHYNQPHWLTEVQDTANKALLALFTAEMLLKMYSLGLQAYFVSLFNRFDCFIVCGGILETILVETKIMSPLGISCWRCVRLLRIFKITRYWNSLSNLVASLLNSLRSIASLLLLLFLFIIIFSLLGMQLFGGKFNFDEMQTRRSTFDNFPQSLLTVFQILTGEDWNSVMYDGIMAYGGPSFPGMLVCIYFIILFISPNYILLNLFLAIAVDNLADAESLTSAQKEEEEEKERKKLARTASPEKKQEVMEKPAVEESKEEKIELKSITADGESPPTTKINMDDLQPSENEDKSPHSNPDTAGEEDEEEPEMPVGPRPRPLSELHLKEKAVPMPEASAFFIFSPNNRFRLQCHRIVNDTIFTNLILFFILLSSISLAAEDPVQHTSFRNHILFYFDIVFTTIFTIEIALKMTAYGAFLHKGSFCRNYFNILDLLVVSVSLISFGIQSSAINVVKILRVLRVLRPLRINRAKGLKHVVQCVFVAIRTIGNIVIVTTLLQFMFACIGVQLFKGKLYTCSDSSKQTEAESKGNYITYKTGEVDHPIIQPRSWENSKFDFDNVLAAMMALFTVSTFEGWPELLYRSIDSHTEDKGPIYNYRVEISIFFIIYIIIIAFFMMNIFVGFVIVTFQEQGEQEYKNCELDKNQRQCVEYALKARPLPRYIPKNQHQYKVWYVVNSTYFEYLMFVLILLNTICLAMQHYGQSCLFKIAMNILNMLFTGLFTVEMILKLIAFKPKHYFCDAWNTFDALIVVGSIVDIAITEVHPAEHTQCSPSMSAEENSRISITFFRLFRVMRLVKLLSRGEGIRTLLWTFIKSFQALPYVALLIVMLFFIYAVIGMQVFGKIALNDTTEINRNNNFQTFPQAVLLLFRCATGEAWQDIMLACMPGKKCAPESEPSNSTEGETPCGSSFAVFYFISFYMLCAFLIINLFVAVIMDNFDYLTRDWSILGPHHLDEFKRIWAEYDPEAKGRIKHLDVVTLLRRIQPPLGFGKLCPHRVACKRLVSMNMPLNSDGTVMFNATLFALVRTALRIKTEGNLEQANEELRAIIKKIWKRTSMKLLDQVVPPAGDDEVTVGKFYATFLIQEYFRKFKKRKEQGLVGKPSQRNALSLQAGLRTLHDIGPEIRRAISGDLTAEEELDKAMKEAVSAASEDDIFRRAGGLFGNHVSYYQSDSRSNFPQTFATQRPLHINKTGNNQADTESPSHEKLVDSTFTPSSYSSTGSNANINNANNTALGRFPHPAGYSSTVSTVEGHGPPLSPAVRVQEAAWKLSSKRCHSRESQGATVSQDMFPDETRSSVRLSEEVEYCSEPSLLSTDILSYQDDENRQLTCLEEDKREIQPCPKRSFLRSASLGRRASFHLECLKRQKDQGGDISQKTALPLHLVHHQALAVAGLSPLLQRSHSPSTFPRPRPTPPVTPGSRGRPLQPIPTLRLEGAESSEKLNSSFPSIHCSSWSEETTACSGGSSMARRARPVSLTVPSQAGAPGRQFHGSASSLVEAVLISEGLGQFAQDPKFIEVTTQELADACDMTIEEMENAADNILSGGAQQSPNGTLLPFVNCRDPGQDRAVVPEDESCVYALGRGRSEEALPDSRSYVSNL
The target of assay [3] is T4, Muscarinic acetylcholine receptor M2 (Homo sapiens, UniProt P08172).
T4 sequence (P08172 whole entry): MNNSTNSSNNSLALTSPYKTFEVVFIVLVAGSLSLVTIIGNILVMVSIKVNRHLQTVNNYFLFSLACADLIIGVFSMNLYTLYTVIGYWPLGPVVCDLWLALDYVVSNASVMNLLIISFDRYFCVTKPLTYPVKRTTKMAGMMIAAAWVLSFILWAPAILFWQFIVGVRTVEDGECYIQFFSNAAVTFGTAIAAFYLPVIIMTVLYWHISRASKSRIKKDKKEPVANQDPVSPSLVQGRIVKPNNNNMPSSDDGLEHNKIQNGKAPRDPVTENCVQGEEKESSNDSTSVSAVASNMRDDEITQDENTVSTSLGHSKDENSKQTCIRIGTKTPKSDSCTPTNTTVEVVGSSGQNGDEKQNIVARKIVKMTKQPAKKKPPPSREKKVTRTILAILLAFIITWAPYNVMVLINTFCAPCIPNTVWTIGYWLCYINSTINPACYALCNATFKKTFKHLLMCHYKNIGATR
Type of assay: functional, cell-based.

Assay [4] addresses T5, 5-hydroxytryptamine receptor 1A (Homo sapiens, UniProt P08908).
T5 sequence (P08908 whole entry): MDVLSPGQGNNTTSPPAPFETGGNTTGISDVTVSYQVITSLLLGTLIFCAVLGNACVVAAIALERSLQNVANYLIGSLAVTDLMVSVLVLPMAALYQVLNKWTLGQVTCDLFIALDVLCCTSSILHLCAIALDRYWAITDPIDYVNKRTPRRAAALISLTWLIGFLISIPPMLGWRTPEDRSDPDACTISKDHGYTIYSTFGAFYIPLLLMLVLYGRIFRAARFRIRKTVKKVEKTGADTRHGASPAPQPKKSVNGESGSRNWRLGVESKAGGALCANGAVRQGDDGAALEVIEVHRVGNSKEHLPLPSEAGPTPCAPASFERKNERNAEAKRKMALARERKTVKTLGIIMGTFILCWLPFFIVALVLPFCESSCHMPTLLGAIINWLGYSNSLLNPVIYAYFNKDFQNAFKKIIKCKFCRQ
Type of assay: functional, cell-based.

Assay [5] has as its target 5-hydroxytryptamine receptor 2B (Homo sapiens, UniProt P41595). Type of assay: functional, cell-based.
The target of assay [6] is Delta-type opioid receptor (Homo sapiens, UniProt P41143).
Sequence of Delta-type opioid receptor (P41143 whole entry): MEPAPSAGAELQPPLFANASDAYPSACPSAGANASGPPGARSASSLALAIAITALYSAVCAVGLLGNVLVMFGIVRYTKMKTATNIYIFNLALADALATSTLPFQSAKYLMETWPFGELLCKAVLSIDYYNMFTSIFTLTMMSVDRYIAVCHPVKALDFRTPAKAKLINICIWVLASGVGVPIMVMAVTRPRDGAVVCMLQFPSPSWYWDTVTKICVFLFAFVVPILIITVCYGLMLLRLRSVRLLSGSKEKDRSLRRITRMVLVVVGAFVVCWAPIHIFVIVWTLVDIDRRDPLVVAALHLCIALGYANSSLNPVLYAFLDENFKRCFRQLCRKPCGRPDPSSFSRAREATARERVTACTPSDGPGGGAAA
The target of assay [7] is Kappa-type opioid receptor (Homo sapiens, UniProt P41145).
Sequence of Kappa-type opioid receptor (P41145 whole entry): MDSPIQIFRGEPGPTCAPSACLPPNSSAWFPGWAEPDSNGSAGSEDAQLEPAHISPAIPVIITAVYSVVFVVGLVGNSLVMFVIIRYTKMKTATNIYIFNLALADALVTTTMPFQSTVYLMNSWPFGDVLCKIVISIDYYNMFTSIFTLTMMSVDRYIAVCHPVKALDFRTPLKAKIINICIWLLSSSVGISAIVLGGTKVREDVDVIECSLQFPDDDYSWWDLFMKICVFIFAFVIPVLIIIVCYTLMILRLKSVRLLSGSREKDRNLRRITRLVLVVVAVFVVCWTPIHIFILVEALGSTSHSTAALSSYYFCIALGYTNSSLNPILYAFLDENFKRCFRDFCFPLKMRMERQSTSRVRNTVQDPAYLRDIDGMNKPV
Assay [8] concerns the target T6, Prostaglandin G/H synthase 1 (Rattus norvegicus, UniProt Q63921).
T6 sequence (Q63921 whole entry): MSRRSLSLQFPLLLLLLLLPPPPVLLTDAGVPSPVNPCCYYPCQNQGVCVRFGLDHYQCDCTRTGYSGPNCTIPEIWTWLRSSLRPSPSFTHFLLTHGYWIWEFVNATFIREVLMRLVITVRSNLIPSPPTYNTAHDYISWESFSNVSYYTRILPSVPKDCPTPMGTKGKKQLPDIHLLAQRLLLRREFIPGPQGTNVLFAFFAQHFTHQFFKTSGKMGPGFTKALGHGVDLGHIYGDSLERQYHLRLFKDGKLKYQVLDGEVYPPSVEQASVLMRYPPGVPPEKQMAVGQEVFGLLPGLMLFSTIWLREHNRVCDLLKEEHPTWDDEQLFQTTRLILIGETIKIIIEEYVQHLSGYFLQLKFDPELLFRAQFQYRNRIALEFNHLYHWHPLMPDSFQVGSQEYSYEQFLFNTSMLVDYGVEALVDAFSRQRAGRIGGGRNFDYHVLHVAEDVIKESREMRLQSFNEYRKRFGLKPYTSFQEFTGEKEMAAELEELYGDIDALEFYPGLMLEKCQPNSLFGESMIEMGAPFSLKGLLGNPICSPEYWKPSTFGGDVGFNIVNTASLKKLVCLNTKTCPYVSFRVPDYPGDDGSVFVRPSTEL
The class given is functional.
Note: assay procedure not described here.

Sequence of 5-hydroxytryptamine receptor 2B (P41595 whole entry): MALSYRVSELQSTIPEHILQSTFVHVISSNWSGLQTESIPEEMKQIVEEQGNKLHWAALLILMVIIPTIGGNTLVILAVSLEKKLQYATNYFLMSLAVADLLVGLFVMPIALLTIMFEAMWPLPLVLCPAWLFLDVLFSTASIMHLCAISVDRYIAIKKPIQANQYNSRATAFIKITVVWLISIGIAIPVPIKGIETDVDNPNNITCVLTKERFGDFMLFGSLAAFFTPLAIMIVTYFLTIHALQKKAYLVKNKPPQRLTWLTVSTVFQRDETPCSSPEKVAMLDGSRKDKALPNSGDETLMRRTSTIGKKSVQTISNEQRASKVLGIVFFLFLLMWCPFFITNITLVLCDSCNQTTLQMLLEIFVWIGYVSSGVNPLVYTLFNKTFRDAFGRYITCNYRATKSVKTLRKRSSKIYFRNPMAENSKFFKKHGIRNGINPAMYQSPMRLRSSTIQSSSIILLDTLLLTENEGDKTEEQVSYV

The AC50 is the concentration giving half of the maximal activity seen. Consider `CC(=O)O[C@@]12CO[C@@H]1C[C@H](O)[C@@]1(C)C(=O)[C@H](O)C3=C(C)[C@@H](OC(=O)[C@H](O)[C@@H](NC(=O)OC(C)(C)C)c4ccccc4)C[C@@](O)([C@@H](OC(=O)c4ccccc4)[C@H]21)C3(C)C` [DOCETAXEL ANHYDROUS], for which the AC50 (at Adenosine receptor A1; in [1]; on B2 bradykinin receptor; in assay [2]; in assay [3]; in assay [4]) was more than 30 µM each time. The AC50 in assay [5], in [6], in [7] and in assay [8] was more than 30 µM throughout.

In the case of `CN1C(=O)CC(c2ccccc2)C1=O` (stereo not given) [PHENSUXIMIDE], the AC50 (on Adenosine receptor A1; in assay [1]; on B2 bradykinin receptor; in assay [2]; in [3]; in assay [4]) was more than 10 µM in each case. Besides, the AC50 in assay [5] is more than 10 µM; in assay [6], more than 30 µM; in assay [7] it was more than 10 µM; in assay [8], more than 10 µM.

Regarding `CCC1(C2=CCCCCC2)C(=O)NC(=O)NC1=O` [HEPTABARBITAL], the AC50 (at Adenosine receptor A1; in assay [1]; on B2 bradykinin receptor; in assay [2]; in [3]; in [4]) was more than 10 µM throughout. The AC50 was more than 10 µM in assay [5], more than 30 µM in assay [6], more than 10 µM in [7] and more than 10 µM in [8].

Regarding `NC(CO)C(=O)NNCc1ccc(O)c(O)c1O` (stereo not given) [BENSERAZIDE], the AC50 is more than 30 µM on Adenosine receptor A1; more than 10 µM in [1]; more than 30 µM on B2 bradykinin receptor; more than 10 µM in [2]; more than 10 µM in assay [3]; more than 10 µM in [4]. For the same compound, the AC50 is more than 10 µM in assay [5], 30 µM in assay [6], more than 10 µM in assay [7] and more than 30 µM in assay [8].

Take `CC[C@]1(O)C[C@@H]2CN(CCc3c([nH]c4ccccc34)[C@@](C(=O)OC)(c3cc4c(cc3OC)N(C)[C@H]3[C@@](O)(C(N)=O)[C@H](O)[C@]5(CC)C=CCN6CC[C@]43[C@@H]65)C2)C1` [VINDESINE]: the AC50 (on Adenosine receptor A1; in [1]; at B2 bradykinin receptor; in assay [2]; in assay [3]; in [4]) was more than 30 µM in each case. The AC50 in assay [5] was more than 30 µM; in [6], more than 30 µM; in [7], more than 30 µM; in assay [8], 25 µM.

Take `CCN1CCC[C@H]1CNC(=O)c1cc(S(N)(=O)=O)ccc1OC` [LEVOSULPIRIDE]: the AC50 at Adenosine receptor A1 is more than 30 µM; in [1] it was more than 10 µM; at B2 bradykinin receptor it was more than 30 µM; in assay [2], more than 10 µM; in assay [3], more than 10 µM; in [4], more than 30 µM. Moreover, the half-maximal activity concentration (AC50) in assay [5] is more than 10 µM; in assay [6] it was more than 30 µM; in assay [7], more than 10 µM; in [8] it was more than 30 µM.

For the compound `CCCCCCCCOc1ccccc1C(=O)Nc1ccc(C(=O)OCC[N+](C)(CC)CC)cc1` [OTILONIUM BROMIDE], the AC50 on Adenosine receptor A1 was more than 30 µM; in [1] it was more than 10 µM; on B2 bradykinin receptor it was more than 30 µM; in assay [2] it was 16 µM; in assay [3], 16 µM; in [4] it was 11 µM. Further, the AC50 was determined as 12 µM in assay [5], 29 µM in [6], 3.4 µM in [7] and 14 µM in assay [8].

For the compound `CCN(CC)CCOC(=O)c1ccc(N)cc1` [PROCAINE], the AC50 is more than 30 µM on Adenosine receptor A1; more than 10 µM in [1]; more than 30 µM at B2 bradykinin receptor; more than 10 µM in [2]; more than 10 µM in assay [3]; more than 30 µM in assay [4]. For the same compound, the AC50 is more than 10 µM in assay [5], more than 30 µM in assay [6], more than 10 µM in assay [7] and more than 30 µM in assay [8].

For `C#C[C@]1(O)CC[C@H]2[C@@H]3CCC4=CCCC[C@@H]4[C@H]3CC[C@@]21C` [LYNESTRENOL], the AC50 (at Adenosine receptor A1; in [1]; at B2 bradykinin receptor; in assay [2]; in assay [3]; in assay [4]) was more than 30 µM throughout. Further, the AC50 was more than 30 µM in assay [5], more than 30 µM in assay [6], 1.5 µM in [7] and more than 30 µM in [8].

Regarding `CN[C@@H]1[C@H](O)[C@H](NC)[C@H]2O[C@@]3(O)C(=O)C[C@@H](C)O[C@H]3O[C@@H]2[C@H]1O` [SPECTINOMYCIN], the AC50 at Adenosine receptor A1 was more than 10 µM; in assay [1], more than 10 µM; at B2 bradykinin receptor, more than 10 µM; in assay [2], more than 10 µM; in assay [3], more than 10 µM; in [4], more than 30 µM. Moreover, the AC50 in assay [5] was more than 30 µM; in assay [6] it was more than 30 µM; in assay [7] it was more than 10 µM; in assay [8] it was more than 10 µM.

Take `CCCCCCCCCCCC[N+](C)(C)CCOc1ccccc1` [DOMIPHEN]: the AC50 at Adenosine receptor A1 was more than 30 µM; in [1] it was 13 µM; on B2 bradykinin receptor, more than 30 µM; in [2], more than 30 µM; in [3] it was 14 µM; in assay [4] it was 22 µM. The AC50 in assay [5] was more than 30 µM; in assay [6], more than 30 µM; in assay [7], 3.6 µM; in assay [8], more than 30 µM.
